Data from US12410179B2, “Modulators of TNF alpha activity and uses thereof” (RayThera, Inc., priority 2023, dated 2025).
pIC50: −log10 of the molar value.

Target: TNFα (Homo sapiens, UniProt P01375)
Assay: HEK-Blue hTNFα reporter assay
Format: cell-based
Design: purchased R&D biosystem (R&D Systems) 210-TA-020/CF
Conditions: HEK-Blue hTNFα reporter cells, SEAP readout; read-out: IC50 Range
In short: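 IC50 from 4-parameter regression of % inhibition, with OD620 of secreted SEAP (QUANTI-Blue, 1 h) referenced to cells with and without hTNFα. HEK-Blue TNFα reporter cells were exposed 24 h to compound premixed 1 h with hTNFα ([…]).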

TNFα, sequence (P01375 77-233 limits assumed): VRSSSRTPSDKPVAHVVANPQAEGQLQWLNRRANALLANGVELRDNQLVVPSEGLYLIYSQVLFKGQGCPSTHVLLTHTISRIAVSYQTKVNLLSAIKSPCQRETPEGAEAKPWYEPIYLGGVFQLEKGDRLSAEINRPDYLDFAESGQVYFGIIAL

[2H]C([2H])([2H])N1C(=O)c2cccc(OC(F)F)c2[C@H]2C[C@@H]1c1nn3ccc(-c4cnc([C@]5(C#N)C[C@](C)(N)C5)nc4)cc3c12 [Example 280]
pIC50: > 7.60

[2H]C([2H])([2H])N1C(=O)c2cccc(OC(F)F)c2[C@H]2C[C@@H]1c1nn3ccc(-c4cnc([C@]5(N)C[C@@](C)(O)C5)nc4C)cc3c12 [Example 281]
pIC50: > 7.60

[2H]C([2H])([2H])N1C(=O)c2ccc(F)c(OC(F)F)c2[C@H]2C[C@@H]1c1nn3ccc(-c4cnc(C5(N)CCC5)nc4)nc3c12 [Example 282]
pIC50: > 7.60

O=C1N[C@@H]2C[C@H](c3c(OC(F)F)cccc31)c1c2nn2ccc(C3=CCN(C(=O)O[C@H]4C[C@@H](O)C4)CC3)cc12 [Example 283]
pIC50: > 7.60

[2H]C([2H])([2H])N1C(=O)c2cccc(OC(F)F)c2[C@H]2C[C@@H]1c1nn3cc(F)c(-c4cnc([C@]5(O)C[C@@](C)(N)C5)nc4)cc3c12 [Example 284]
pIC50: > 7.60

[2H]C([2H])([2H])N1C(=O)c2cccc(OC(F)F)c2[C@H]2C[C@@H]1c1nn3ccc(-c4cnc([C@]5(N)C[C@@](C)(O)C5)nc4C)nc3c12 [Example 285]
pIC50: > 7.60

[2H]C([2H])([2H])N1C(=O)c2cccc(OC(F)F)c2[C@H]2C[C@@H]1c1nn3ccc(-c4cnc(C(C)(C)N)nc4)nc3c12 [Example 286]
pIC50: > 7.60

[2H]C([2H])([2H])N1C(=O)c2cccc(OC(F)F)c2[C@H]2C[C@@H]1c1nn3cc(F)c(-c4cnc(C(C)(C)N)nc4)nc3c12 [Example 287]
pIC50: > 7.60

[2H]C([2H])([2H])N1C(=O)c2ccc(F)c(OC(F)F)c2[C@H]2C[C@@H]1c1nn3ccc(-c4cnc([C@]5(N)C[C@@](C)(O)C5)nc4)nc3c12 [Example 288]
pIC50: > 7.60

[2H]C([2H])([2H])N1C(=O)c2ccc(F)c(OC(F)F)c2[C@H]2C[C@@H]1c1nn3ccc(-c4cnc([C@]5(N)C[C@@](C)(O)C5)c(F)c4)nc3c12 [Example 289]
pIC50: > 7.60

[2H]C([2H])([2H])N1C(=O)c2cccc(OC(F)F)c2[C@H]2C[C@@H]1c1nn3cc(F)c(-c4cnc([C@]5(N)C[C@H](C#N)C5)nc4)cc3c12 [Example 290]
pIC50: > 7.60

[2H]C([2H])([2H])N1C(=O)c2cccc(OC(F)F)c2[C@H]2C[C@@H]1c1nn3ccc(-c4cnc(N5CC(C)(N)C5)nc4)cc3c12 [Example 291]
pIC50: > 7.60

[2H]C([2H])([2H])N1C(=O)c2cccc(OC(F)F)c2[C@H]2C[C@@H]1c1nn3ccc(-c4cnc([C@]5(C#N)C[C@@](C)(N)C5)c(F)c4)cc3c12 [Example 292]
pIC50: > 7.60

[2H]C([2H])([2H])N1C(=O)c2cccc(OC(F)F)c2[C@H]2C[C@@H]1c1nn3ccc(-c4cnc([C@]5(C#N)C[C@](C)(N)C5)c(F)c4)cc3c12 [Example 293]
pIC50: > 7.60

[2H]C([2H])([2H])N1C(=O)c2cccc(OC(F)F)c2[C@H]2C[C@@H]1c1nn3cc(F)c(-c4cnc(C(C)(C)N)nc4)cc3c12 [Example 294]
pIC50: > 7.60

CN1C(=O)c2cccc(OC(F)F)c2[C@H]2C[C@@H]1c1nn3ccc(-c4cnc(C(C)(C)N)nc4)nc3c12 [Example 295]
pIC50: > 7.60

[2H]C([2H])([2H])N1C(=O)c2cccc(OC(F)F)c2[C@H]2C[C@@H]1c1nn3cc(C)c(-c4cnc(C(C)(C)N)nc4)nc3c12 [Example 296]
pIC50: > 7.60

[2H]C([2H])([2H])N1C(=O)c2ccc(F)c(OC(F)F)c2[C@H]2C[C@@H]1c1nn3ccc(-c4cnc(C(C)(C)N)nc4)nc3c12 [Example 297]
pIC50: > 7.60

[2H]C([2H])([2H])N1C(=O)c2cccc(OC(F)F)c2[C@H]2C[C@@H]1c1nn3cnc(-c4cnc(C(C)(C)N)nc4)cc3c12 [Example 298]
pIC50: > 7.60

CN1C(=O)c2cccc(C(F)F)c2[C@H]2C[C@@H]1c1nn3ccc(-c4cnc(C5(N)CCC5)nc4)cc3c12 [Example 299]
pIC50: > 7.60

[2H]C([2H])([2H])N1C(=O)c2cccc(OC(F)F)c2[C@H]2C[C@@H]1c1nn3cc(C)c(-c4cnc(C(C)(C)N)nc4)cc3c12 [Example 300]
pIC50: > 7.60

[2H]C([2H])([2H])N1C(=O)c2cccc(C#N)c2[C@H]2C[C@@H]1c1nn3ccc(-c4cnc([C@]5(N)C[C@@](C)(C#N)C5)nc4)nc3c12 [Example 301, (7R,14R)-12-(2-((1s,3S)-1-amino-3-cyano-3-methylcyclobutyl)pyrimidin-5-yl)-6-(methyl-d3)-5-oxo-5,6,7,14-tetrahydro-7,14-methanobenzo[c]pyrimido[1′,2′:1,5]pyrazolo[4,3-f]azocine-1-carbonitrile]
pIC50: > 7.60

[2H]C([2H])([2H])N1C(=O)c2cccc(C)c2[C@H]2C[C@@H]1c1nn3ccc(-c4cnc(C5(N)CCC5)nc4)cc3c12 [Example 302, (7R,14R)-12-(2-(1-aminocyclobutyl)pyrimidin-5-yl)-1-methyl-6-(methyl-d3)-6,7-dihydro-7,14-methanobenzo[c]pyrido[1′,2′:1,5]pyrazolo[4,3-f]azocin-5 (14H)-one]
pIC50: 7.00 to 7.60

CN1C(=O)c2cccc(C#N)c2[C@H]2C[C@@H]1c1nn3ccc(-c4ccc(P(C)(C)=O)nc4)cc3c12 [Example 303]
pIC50: > 7.60

CN1C(=O)c2cccc(C3CC3)c2[C@H]2C[C@@H]1c1nn3ccc(-c4ccc(P(C)(C)=O)nc4)cc3c12 [Example 304]
pIC50: > 7.60

C#Cc1cccc2c1[C@H]1C[C@H](c3nn4ccc(-c5cnc([C@]6(O)C[C@@](C)(O)C6)nc5)cc4c31)N(C)C2=O [Example 305]
pIC50: > 7.60

[2H]C([2H])([2H])N1C(=O)c2cccc(C#N)c2[C@H]2C[C@@H]1c1nn3ccc(-c4cnc(C5(N)CCC5)nc4)cc3c12 [Example 306]
pIC50: > 7.60

[2H]C([2H])([2H])N1C(=O)c2cccc(C#N)c2[C@H]2C[C@@H]1c1nn3cc(F)c(-c4cnc(C5(N)CCC5)nc4)cc3c12 [Example 307]
pIC50: 7.00 to 7.60

[2H]C([2H])([2H])N1C(=O)c2cccc(C#N)c2[C@H]2C[C@@H]1c1nn3ccc(-c4cnc([C@]5(N)C[C@@](C)(C#N)C5)nc4)cc3c12 [Example 308]
pIC50: > 7.60

[2H]C([2H])([2H])N1C(=O)c2cccc(C#N)c2[C@H]2C[C@@H]1c1nn3ccc(-c4cnc([C@]5(N)C[C@@](C)(O)C5)c(F)c4)cc3c12 [Example 309]
pIC50: > 7.60

[2H]C([2H])([2H])N1C(=O)c2cccc(C#N)c2[C@H]2C[C@@H]1c1nn3ccc(-c4cnc(C5(N)CCC5)nc4)nc3c12 [Example 310]
pIC50: 7.00 to 7.60

[2H]C([2H])([2H])N1C(=O)c2cccc(C#N)c2[C@H]2C[C@@H]1c1nn3cc(F)c(-c4cnc([C@]5(N)C[C@@](C)(C#N)C5)nc4)nc3c12 [Example 311]
pIC50: 7.00 to 7.60

[2H]C([2H])([2H])N1C(=O)c2cccc(C#N)c2[C@H]2C[C@@H]1c1nn3cc(F)c(-c4cnc([C@]5(N)C[C@@](C)(C#N)C5)nc4)cc3c12 [Example 312]
pIC50: > 7.60

[2H]C([2H])([2H])N1C(=O)c2cccc(C3CC3)c2[C@H]2C[C@@H]1c1nn3ccc(-c4cnc(C5(N)CCC5)nc4)cc3c12 [Example 313]
pIC50: > 7.60

CC(=O)c1cccc2c1[C@H]1C[C@H](c3nn4ccc(-c5cnc(C6(N)CCC6)nc5)cc4c31)N(C)C2=O [Example 314, (7R,14R)-1-acetyl-12-(2-(1-aminocyclobutyl)pyrimidin-5-yl)-6-methyl-6,7-dihydro-7,14-methanobenzo[c]pyrido[1′,2′:1,5]pyrazolo[4,3-f]azocin-5 (14H)-one]
pIC50: > 7.60

Cn1ccc(N2CC=C(c3ccn4nc5c(c4c3)[C@@H]3C[C@H]5NC(=O)c4cccc(OC(F)F)c43)CC2)n1 [Example 315, (7R,14S)-1-(difluoromethoxy)-12-(1-(1-methyl-1H-pyrazol-3-yl)-1,2,3,6-tetrahydropyridin-4-yl)-6,7-dihydro-7,14-methanobenzo[c]pyrido[1′,2′:1,5]pyrazolo[4,3-f]azocin-5 (14H)-one]
pIC50: 7.00 to 7.60

CN1C(=O)c2cccc(OC(F)F)c2[C@H]2C[C@@H]1c1nn3ccc([C@H]4CC[C@@H](OC[C@@H](O)CO)CC4)cc3c12 [Example 316, (7R,14S)-1-(difluoromethoxy)-12-((1R,4R)-4-((S)-2,3-dihydroxypropoxy)cyclohexyl)-6-methyl-6,7-dihydro-7,14-methanobenzo[c]pyrido[1′,2′:1,5]pyrazolo[4,3-f]azocin-5 (14H)-one]
pIC50: > 7.60

CN1C(=O)c2cccc(OC(F)F)c2[C@H]2C[C@@H]1c1nn3ccc([C@H]4CC[C@@H](OC[C@H](O)CO)CC4)cc3c12 [Example 317, (7R,14S)-1-(difluoromethoxy)-12-((1S,4R)-4-((R)-2,3-dihydroxypropoxy)cyclohexyl)-6-methyl-6,7-dihydro-7,14-methanobenzo[c]pyrido[1′,2′:1,5]pyrazolo[4,3-f]azocin-5 (14H)-one]
pIC50: > 7.60

CN1C(=O)c2ccnc(OC(F)F)c2[C@H]2C[C@@H]1c1nn3ccc(-c4cnc([C@]5(O)C[C@@](C)(O)C5)nc4)cc3c12 [Example 320, (7R,14S)-1-(difluoromethoxy)-12-(2-((1s,3R)-1,3-dihydroxy-3-methylcyclobutyl)pyrimidin-5-yl)-6-methyl-6,7-dihydro-7,14-methanopyrido[4,3-c]pyrido[1′,2′:1,5]pyrazolo[4,3-f]azocin-5 (14H)-one]
pIC50: > 7.60

CN1C(=O)c2ccc(OC(F)F)nc2[C@H]2C[C@@H]1c1nn3ccc(-c4cnc([C@]5(O)C[C@@](C)(O)C5)nc4)cc3c12 [Example 321, 2-(difluoromethoxy)-12-(2-((1s, 3s)-1,3-dihydroxy-3-methylcyclobutyl)pyrimidin-5-yl)-6-methyl-6,7-dihydro-7,14-methanopyrido[3,2-c]pyrido[1′,2′:1,5]pyrazolo[4,3-f]azocin-5 (14H)-one]
pIC50: 7.00 to 7.60

CN1C(=O)c2c(F)ccc(OC(F)F)c2[C@H]2C[C@@H]1c1nn3ccc(-c4cnc(C5(N)CCC5)nc4)cc3c12 [Example 322, (7R,14S)-12-(2-(1-aminocyclobutyl)pyrimidin-5-yl)-1-(difluoromethoxy)-4-fluoro-6-methyl-6,7-dihydro-7,14-methanobenzo[c]pyrido[1′,2′:1,5]pyrazolo[4,3-f]azocin-5 (14H)-one]
pIC50: 7.00 to 7.60
